Source: article PMC2854715, “Oxpholipin 11D: An Anti-Inflammatory Peptide That Binds Cholesterol and Oxidized Phospholipids” (PLoS ONE, 2010)
Read-outs that look alike come from different tables or passages of the source. Non-standard residues stand in square brackets, D forms with d.

Experiments:
Bovine albumin = molecular target: T1, Bovine albumin (Bos taurus, UniProt P02769); settings: SPR; mean ± SEM; read-out: KD ± SEM, bovine albumin (control); cited from earlier work
T1 construct: purchased Sigma-Aldrich
Excerpt: (§1) Table 3 Binding of OxP-11D and D-4F to oxidized and nonoxidized (phospho)lipids and sterols. | column: apoA-I; KD ± SEM (M) / D-4F

human RBCs = experiment: Inhibition of CDC-mediated hemolysis; type: cell-based; settings: data not shown
[1] = system: LDL-induced monocyte chemotaxis in cultured human aortic endothelial cells (HAEC); experiment: Monocyte chemotaxis assay (LDL-treated HAEC cultures); type: cell-based; settings: for Monocyte chemotactic activity, dose response: Figure 2; for Monocyte chemotactic activity, Inflammatory Index (II): peptide 1 µg/ml, HAEC treated with LDL 250 µg/ml 8 h, standardized to LDL, II<1 anti-inflammatory, Figure 1
Method: Normal human monocytes were isolated as previously described. Human aortic endothelial cells (HAEC) were isolated and maintained as previously reported. Acquisition and use of these cells was in accordance with protocols approved by the UCLA Human Research Subject Protection Committee.
(§2) As previously described, [64], HAEC cells were treated with native LDL (250 µg/ml) in the absence or presence of HDL or tested peptides for 8 h. After these cultures were washed, the medium was replaced by fresh Medium 199 and the cultures were incubated for an additional 8 h. This culture medium was collected and assayed for monocyte chemotactic activity using chambers purchased from Neuroprobe (Cabin John, MD). After monocytes were added to the upper compartment, the chamber was incubated for 60 min at 37°C and subsequently disassembled. The membrane was rinsed, air dried, fixed with 1% glutaraldehyde, stained with 0.1% crystal violet dye, and 12 standardized high power fields were examined microscopically. The number of migrated monocytes was expressed as the mean ±SD of monocytes counted. Values obtained in the absence of HDL were normalized to a value of 1.0. Normalized values >1.0 after HDL addition were considered to be pro-inflammatory, and values <1.0 as being anti-inflammatory.

apoE deficient mice = experiment: In vivo activity in apoE deficient mice: HDL inflammatory index
Method: as §2
ApoE null mice on a C57BL/6J background, originally from Jackson Laboratories (Bar Harbor, ME), were maintained in a breeding colony in the Department of Laboratory and Animal Medicine at the David Geffen School of Medicine at UCLA. The mice were maintained on a chow diet (Ralston Purina, St. Louis, MO).
Six hours later, and with continued fasting, blood was removed from the retro-orbital sinus under mild isoflurane anesthesia, and anticoagulated with heparin (2.5 U/ml). Plasma was obtained and fractionated by FPLC. HDL-containing fractions were tested in HAEC cultures for their ability to inhibit LDL-induced monocyte chemotactic activity. All procedures conformed to regulations of the UCLA Animal Research Committee. An HDL inflammatory index was determined using the standard monocyte chemotaxis assay. Indices >1 were interpreted as pro-inflammatory, and indices <1 as anti-inflammatory.

[2] = SPR, mean ± SEM, cited from earlier work
Excerpt: as §1

[3] = peptide 0.01 µg/ml (10 ng/ml) versus 1 µg/ml
[4] = peptide 0.1 µg/ml versus 1 µg/ml
[5] = read-out: KD ± SEM, 12(S)-HPETE
[6] = read-out: KD ± SEM, 13(S)-HPODE
[7] = read-out: KD ± SEM, 15(S)-HPETE
[8] = read-out: KD ± SEM, arachidonic acid
[9] = read-out: KD ± SEM, linoleic acid
[10] = read-out: KD ± SEM, palmitic acid

T1 sequence (P02769 25-607): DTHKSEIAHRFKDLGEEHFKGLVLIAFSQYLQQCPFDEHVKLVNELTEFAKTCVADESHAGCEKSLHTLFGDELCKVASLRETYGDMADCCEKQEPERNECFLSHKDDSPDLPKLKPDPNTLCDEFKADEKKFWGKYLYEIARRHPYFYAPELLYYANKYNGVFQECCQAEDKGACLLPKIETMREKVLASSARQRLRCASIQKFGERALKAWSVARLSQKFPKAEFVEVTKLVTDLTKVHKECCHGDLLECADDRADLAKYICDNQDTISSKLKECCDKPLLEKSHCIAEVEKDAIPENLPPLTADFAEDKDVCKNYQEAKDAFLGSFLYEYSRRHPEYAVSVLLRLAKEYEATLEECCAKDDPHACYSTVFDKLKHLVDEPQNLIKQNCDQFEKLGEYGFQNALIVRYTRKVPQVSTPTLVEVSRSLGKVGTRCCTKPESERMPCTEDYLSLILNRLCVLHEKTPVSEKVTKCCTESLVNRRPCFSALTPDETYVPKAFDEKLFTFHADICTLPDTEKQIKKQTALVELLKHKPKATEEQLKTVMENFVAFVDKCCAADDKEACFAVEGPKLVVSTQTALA

Row | Substance | Kd (Bovine albumin) [µM] | Monocyte chemotactic activity, dose response [1, 3] | Monocyte chemotactic activity, dose response [1, 4] | Monocyte chemotactic activity, Inflammatory Index (II) [1] | Kd ([2]; read-out: KD ± SEM, 5(S)-HPETE) [µM] | Kd ([2]; read-out: KD ± SEM, 9(S)-HODE) [µM] | Kd ([2]; read-out: KD ± SEM, 12(S)-HETE) [µM] | Kd [2, 5] [µM] | Kd ([2]; read-out: KD ± SEM, 13(S)-HODE) [µM] | Kd [2, 6] [µM] | Kd ([2]; read-out: KD ± SEM, 15(S)-HETE) [µM] | Kd [2, 7] [µM] | Kd ([2]; read-out: KD ± SEM, KOdiA-PC) [µM] | Kd ([2]; read-out: KD ± SEM, PEIPC) [µM] | Kd ([2]; read-out: KD ± SEM, POVPC) [µM] | Kd [2, 8] [µM] | Kd [2, 9] [µM] | Kd [2, 10] [µM] | other results
1 | Ac-DWFKAFYDKVAEKFKEAF-NH2 (Ac-[dD][dW][dF][dK][dA][dF][dY][dD][dK][dV][dA][dE][dK][dF][dK][dE][dA][dF]-NH2) [D-4F, a prominent apoA-I-mimetic peptide, Ac-…-NH2, reference compound] | 3.9 |  |  |  |  |  |  |  |  |  |  |  |  |  |  |  |  |  | 
2 | RE-Ctb-Thr-G-Leu-Ala-Trp-E-Trp-Trp-RT-Val-NH2 [OxP-2] |  |  |  |  |  |  |  |  |  |  |  |  |  |  |  |  |  |  | Inhibition of CDC-mediated hemolysis (human RBCs): enhanced the peptide's ability to inhibit CDC-mediated hemolysis
3 | Aib-RE-Ctb-Val-R-Leu-Val-Trp-E-Trp-Trp-RE-Val-NH2 [OxP-13] |  | reduced activity substantially | relatively small decrease in activity | very similar activity |  |  |  |  |  |  |  |  |  |  |  |  |  |  | 
4 | Ac-DWFKAFYDKVAEKFKEAF-NH2 [D-4F, a prominent apoA-I-mimetic peptide, Ac-…-NH2, reference compound] |  |  |  | very similar activity | 0.018 | 0.015 | 0.018 | 0.17 | 0.011 | 0.021 | 0.022 | 0.051 | 0.00058 | 6e-05 | 0.0024 | 0.012 | 0.015 | 0.67 | HDL Inflammatory Index in vivo (apoE deficient mice; 1 mg/kg subcutaneously, fasting female apoE deficient mice, HDL isolated 6 h after dose, normalized to LDL, Figure 3): equally effective; Kd ([2]; read-out: KD ± SEM, 4β-hydroxycholesterol): 31 µM; Kd ([2]; read-out: KD ± SEM, 20(S)-hydroxycholesterol): 3.9 µM; Kd ([2]; read-out: KD ± SEM, 22(S)-hydroxycholesterol): 15 µM; Kd ([2]; read-out: KD ± SEM, 24(S)-hydroxycholesterol): 4.3 µM; Kd ([2]; read-out: KD ± SEM, 25-hydroxycholesterol): 2.4 µM; Kd ([2]; read-out: KD ± SEM, PGPC): 0.0063 µM; Kd ([2]; read-out: KD ± SEM, cholesterol): 0.092 µM
5 | RE-Dpa-Thr-G-Leu-Ala-Trp-E-Trp-Trp-RT-Val-NH2 [OxP-11] |  | reduced activity substantially | relatively small decrease in activity | very similar activity |  |  |  |  |  |  |  |  |  |  |  |  |  |  | HDL Inflammatory Index in vivo (apoE deficient mice; lower doses 0.5 and 0.1 mg/kg subcutaneously, apoE deficient mice, Figure 3B): considerably less active than L-4F
6 | apoA-I: human apoA-I | 0.021 |  |  |  | 1600 ± 0.3 | 1300 ± 0.5 | 850 ± 0.033 | 820 ± 0.027 | 1800 ± 0.3 | 1200 ± 0.6 | 1300 ± 0.1 | 1000 ± 0.2 | 21 | 51 | 31 | 0.01 | 0.0065 | 2 | KD ± SEM, 4β-hydroxycholesterol [2]: BND; KD ± SEM, 20(S)-hydroxycholesterol [2]: BND; KD ± SEM, 22(S)-hydroxycholesterol [2]: BND; KD ± SEM, 24(S)-hydroxycholesterol [2]: BND; KD ± SEM, 25-hydroxycholesterol [2]: BND; KD ± SEM, cholesterol [2]: BND
